According to patent publication US5994361A, “Substituted purinyl derivatives with immunomodulating activity” (priority 1995, dated 1999):

Key:
[1] = test system: T cell activity (ConA), spleen mononuclear leukocytes; assay: Mitogenic proliferation on spleen cell suspension, T (ConA); type: cell-based, C57BL-6 mice; conditions: at 10^-8 - 10^-5 (M); 4320 min
From the text: Mitogenic lectin (mitogen) is a protein which binds and cross-links specific cells surface carbohydrate determinants, and will polyclonally stimulate lymphoid cells. Lymphocyte activation by either antigens or mitogens results in intracellular changes and the subsequent development into a lymphoblast. Mitogenic stimulation of lymphocytes in vitro is believed to mimic the series of events which occur in vivo following their stimulation by specific antigens. PHA, ConA, and PWM, LPS mitogens can be used as a measurement of T cell and B cell activity, respectively.
Briefly, spleen mononuclear leukocytes from C57BL-6 mice were incubated in the presence or absence of mitogens with or without tested drugs. After 72 hours or 5 days, ^3 H thymidine incorporation was recorded as an indication of cell transformation and proliferation.
100 μl of a suspension of 2×10^6 cells/ml (2×10^5 cells/well) were incubated in presence of PHA or ConA or PWM or LPS at the following concentrations:
PHA=0.01% final concentration-0.001%
Cells were incubated in presence or absence of drugs for 72 hours. 0.5 or 1 μCi of tritiated thymidine (^3 H) was added per well the last 18 or 6 hours of incubation respectively. Cells were harvested and counted on a Beta counter.

DA-3 mammary carcinoma [2] = assay: Compound #1 with Cytoxan 20 mg/kg against established DA-3 mammary carcinoma (Example 93); type: in vivo; conditions: compound #1 25 mg/kg i.p. daily + CTX 20 mg/kg i.v.
Description: Combination of compound #1 (25 and 50 mg/kg i.p. daily) plus CTX (20 mg/kg i.v. single bolus) was evaluated against day 4 established DA-3 tumors.

DA-3 mammary carcinoma [3] = assay: Tumor outgrowth of breast carcinoma, with cyclophosphamide (Example 92); type: in vivo, Balb/C mice
Description: Balb/C Mice (n-5/Gr) were used along with DA-3 mammary carcinoma cell line. The mice were treated from -2 to 13 days. Animals were monitored for tumor takes/tumor size and body weights for three weeks from Day 0 until Day 21. D0 was the day of tumor cell inoculation and D21 was the day of experiment termination.
Parameters of effect were measured by inhibition of tumor outgrowth and growth rate [tumors measured along the longest axis (length) and the perpendicular shortest axis (width) and the tumor volumes (T.V.±S.E.) was calculated by the formula T.V.=length (cm)×(width cm)^2 /2.] assessment of body weight loss.
The statistical significance of difference between tumor takes and tumor sizes of control-untreated and drug-treated groups is estimated using the Chi-square and Student's t tests respectively with significance determined at n<0.05.
The mice were divided into the following 5 groups:
Gr.1--Normal Saline (0.2 ml/mouse i.p. starting at D2)
Gr.2--CY (100 mg/kg single bolus i.v. at D0)
Gr.3--Compound #1 (25 mg/kg i.p. starting at D2)
Gr.4--Compound #1 (50 mg/kg i.p. starting at D2)
Gr.5--CY (100 mg/kg i.v. at D0+compound #1 50 mg/kg i.p. starting at D2)

[4] = test system: T cell response (mixed lymphocyte reaction); assay: Mixed lymphocyte reaction (MLR) assay; type: cell-based, C57B1/6 mice and DBA/2 mice; conditions: at 10^-9 - 10^-5 M
Description: (§1) Mixed lymphocyte reaction is an in vitro counterpart of the allograft rejection. Briefly, T cell response was obtained when cells taken from two inbred strains from two outbred individuals of any species were mixed in vitro in culture.
(§2) After 4 days incubation, ^3 H thymidine uptake and cytotoxicity assay (CTL) were performed.
(§3) 3 C57B1/6 mice and 3 DBA/2 mice wre killed and lymphocytes prepared using lympholyte M. The cell concentration was adjusted to 10×10^6 cell/ml for each lysis. DBA/2 cells were irradiated with 3000 Rads. 1 ml of the C57 cells+1 ml of the DBA/2 cells+1 ml of the drug at 3 different concentrations were incubated together for 5 days. Positive control was IL-2 at 15 ng/ml final. After 5 days, the CTL and MLR tests were carried out.
The cells were resuspended and 100 μl of cell suspension were deposited in each of the 96 wells in the plate, 50 μl of Thymidine at 20 μCi/ml was added for 6 hrs. The cells were then collected and counted using a beta counter.

[5] = test system: cytotoxic T lymphocytes, P815 target cells; assay: Cytotoxic T lymphocytes (CTL) assay; type: cell-based, C57B1/6 mice and DBA/2 mice; conditions: Mus musculus, P815, 120 h; at 10^-9 M; read-out: CTL activity, % increase compared to IL2 (100%)
Description: as §1, §2, §3
P815 target cells were labelled with Cr^51. After labelling, the cells were resuspended to 5×10^4 cells/ml.
100 μl of target cells+100 μl Of T cells were incubated for 4 hrs and then 100 μl of supernatant was counted using a gamma counter.

spleen cells = assay: Immunophenotyping on spleen cells, combination with cyclophosphamide; type: in vivo, C57/BLJ6 mice; conditions: in combination with cyclophosphamide
Description: After in vivo drugs analysis, the drugs were evaluated on whole blood for drug stability and toxicity. Furthermore, in vivo/ex vivo analysis was performed on normal and cyclophosphamide immunosuppressed animals plus 5Fu-treated animals. Cell immunophenotyping was performed on mouse-treatedblood and spleen. The following cell surface antigens were analyzed:
CD3 (all T cells), CD4 (T helper/inducer, binds class II-restricted T cells), CD8a (cytotoxic T cells, CTL adhesion), CD11a (T, B, NK, some stem cells, CTL adhesion anti LFA-1α), MAC-1 (monocyte/macrophage), NK (natural killer cells), Ly5 (B cells), CD45 (all leukocytes, protein tyrosine phosphates), and TCR (T cell receptor).
C57/BLJ6 mice (6-8 weeks old) were injected daily for 4 consecutive days, sacrificed at day 5 and immunophenotyping was performed on blood and spleen cells.
The cells were washed twice in PBS, resuspended in 1 ml of RPMI 2% FBS, and incubated for 45 min. on ice with monoclonal antibody. The cells were washed once, fixed with 1% paraformaldehyde, then analyzed using XL Coulter® counter.

## CN(C)c1ncnc2c1ncn2CCCCCOC(=O)N[C@H](CCCNC(=N)N)C(=O)O [Compound #1, N,N-Dimethylaminopurinyl Pentoxycarbonyl D-Arginine]
[1]
  T (ConA) mitogenic proliferation: 2 - 4 ×
DA-3 mammary carcinoma [2]
  anti-tumor effect: no significant effect
DA-3 mammary carcinoma [3]; #1 25 mg/kg, day 4
  Tumor takes: 2/5
DA-3 mammary carcinoma [3]; #1 25 mg/kg, day 6
  Tumor takes: 2/5
DA-3 mammary carcinoma [3]; #1 25 mg/kg, day 8
  Tumor takes: 3/5
DA-3 mammary carcinoma [3]; #1 25 mg/kg, day 10
  Tumor takes: 4/5
DA-3 mammary carcinoma [3]; #1 50 mg/kg, day 4
  Tumor takes: 3/5
DA-3 mammary carcinoma [3]; #1 50 mg/kg, day 6
  Tumor takes: 3/5
DA-3 mammary carcinoma [3]; #1 50 mg/kg, day 8
  Tumor takes: 3/5
DA-3 mammary carcinoma [3]; #1 50 mg/kg, day 10
  Tumor takes: 3/5
DA-3 mammary carcinoma [3]; CY 100 mg/kg + #1 50 mg/kg, day 4
  Tumor takes: 4/5
DA-3 mammary carcinoma [3]; CY 100 mg/kg + #1 50 mg/kg, day 6
  Tumor takes: 5/5
DA-3 mammary carcinoma [3]; CY 100 mg/kg + #1 50 mg/kg, day 8
  Tumor takes: 5/5
DA-3 mammary carcinoma [3]; CY 100 mg/kg + #1 50 mg/kg, day 10
  Tumor takes: 5/5
[4]
  MLR: 1.5 - 4 ×
[5]
  activation at 0.001 µM: > 80%
Spleen cells
  Immunophenotyping, spleen: no effect
